{"source": "patent US12036222B2", "about": "“Methods of treating cancers overexpressing CARM1 with EZH2 inhibitors and a PARP inhibitor” (The Wistar Institut of Anatomy and Biology, priority 2018, dated 2024)", "key": {"[1]": {"test_system": "orthotopically-transplanted CARM1-expressing tumors", "experiment": "Intrabursal orthotopic xenograft model, CARM1-expressing A1847 cells", "format": "in vivo, NSG mice", "method": "The protocols were approved by the Institutional Animal Care and Use Committee (IACUC). For in vivo experiments, the sample size of 5 mice per group was determined based on the data shown from in vitro experiments. Intrabursal orthotopic xenograft was performed as described in Bitler, et al. Nature Medicine (2015) 21:231-8 and Bitler et al. Cancer Research (2011) 71:6184-94. Briefly, 1×10^6 A1847 parental or A1847 CARM1 knockout cells were unilaterally injected into the ovarian bursa of 6-8-week old female immunocompromised NSG mice (n=5 per group). One week after injection the mice were randomized into two groups and treated with vehicle control (20% captisol) or GSK126 (50 mg/kg daily) for three weeks. At the end of the experiments, tumors were surgically dissected and tumor burden was calculated based on tumor weight. For survival experiments, after stopping the treatment, the mice were followed for mortality or when the tumor burden reached 10% of body weight as determined by The Wistar Institute IACUC guideline.\nEZH2 inhibitors, such as GSK126, are used safely in clinical trials for hematopoietic malignancies (Ribrag et al. Eur J Cancer (2014) 50:197). To determine the effects of EZH2 inhibition in vivo on the growth of CARM1-expressing ovarian tumors, two xenograft models were utilized. […]"}, "[2]": {"test_system": "parental and CARM1 knockout A1847 cells, CARM1 high OVCAR10 cells", "experiment": "Apoptosis markers (Annexin V, cleaved caspase 3, cleaved PARP)", "format": "cell-based, human", "details": "10 μM GSK126, 7 days; CARM1-dependent manner", "method": "FIG. 37 illustrates control parental and CARM1 knockout A1847 cells were treated with 10 μM GSK126 or vehicle for 7 days. Percentage of Annexin V positive apoptotic cells was quantified. *p<0.001 and #p>0.05.\nFIG. 38 illustrates levels of cleaved caspase 3 and cleaved PARP in control parental and CARM1 knockout A1847 cells treated with 10 μM GSK126 for 7 days. Expression of 3-actin was used as a loading control.\nFIG. 39A illustrates the expression of apoptosis markers cleaved in CARM1 high OVCAR10 cells as a result of treatment with GSK126. CARM1 high OVCAR10 cells were treated with 10 μM GSK126 or vehicle control for 7 days. The expression of apoptosis markers cleaved caspase 3 and cleaved PARP were determined by immunoblot. Expression of β-actin was used as a loading control.\nPhosphatidylserine externalization was detected using an Annexin V staining kit (Millipore) following the manufacturer's instructions. Annexin V-positive cells were detected using the Guava System and analyzed with the Guava Nexin software Module (Millipore)."}, "[3]": {"target": "T1, PRC2 subunits EZH2 and SUZ12 interaction (Homo sapiens, UniProt Q15910)", "T1 construct": "endogenous in cells; host or cells: A1847 cells (CARM1-high)", "T1 sequence (Q15910 whole entry)": "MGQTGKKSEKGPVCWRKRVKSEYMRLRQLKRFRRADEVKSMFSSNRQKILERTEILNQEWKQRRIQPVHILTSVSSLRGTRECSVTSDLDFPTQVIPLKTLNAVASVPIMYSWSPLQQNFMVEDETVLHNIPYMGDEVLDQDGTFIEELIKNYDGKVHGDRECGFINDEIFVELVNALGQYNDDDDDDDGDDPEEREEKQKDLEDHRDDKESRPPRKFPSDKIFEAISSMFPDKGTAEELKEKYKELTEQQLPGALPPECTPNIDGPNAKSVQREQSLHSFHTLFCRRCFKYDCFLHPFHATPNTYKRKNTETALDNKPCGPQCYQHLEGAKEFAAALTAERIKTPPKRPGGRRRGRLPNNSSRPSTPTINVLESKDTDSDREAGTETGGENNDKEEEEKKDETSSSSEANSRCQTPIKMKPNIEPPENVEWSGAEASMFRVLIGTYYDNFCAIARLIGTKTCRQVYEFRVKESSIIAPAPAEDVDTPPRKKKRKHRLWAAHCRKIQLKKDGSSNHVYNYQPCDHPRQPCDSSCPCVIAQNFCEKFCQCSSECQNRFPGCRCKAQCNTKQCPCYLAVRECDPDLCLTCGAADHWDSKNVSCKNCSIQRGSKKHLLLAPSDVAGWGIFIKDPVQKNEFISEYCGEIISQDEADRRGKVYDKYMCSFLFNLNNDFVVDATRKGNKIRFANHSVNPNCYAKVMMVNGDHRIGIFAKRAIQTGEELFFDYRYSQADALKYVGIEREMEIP", "T1 sequence (Q15022 whole entry partner)": "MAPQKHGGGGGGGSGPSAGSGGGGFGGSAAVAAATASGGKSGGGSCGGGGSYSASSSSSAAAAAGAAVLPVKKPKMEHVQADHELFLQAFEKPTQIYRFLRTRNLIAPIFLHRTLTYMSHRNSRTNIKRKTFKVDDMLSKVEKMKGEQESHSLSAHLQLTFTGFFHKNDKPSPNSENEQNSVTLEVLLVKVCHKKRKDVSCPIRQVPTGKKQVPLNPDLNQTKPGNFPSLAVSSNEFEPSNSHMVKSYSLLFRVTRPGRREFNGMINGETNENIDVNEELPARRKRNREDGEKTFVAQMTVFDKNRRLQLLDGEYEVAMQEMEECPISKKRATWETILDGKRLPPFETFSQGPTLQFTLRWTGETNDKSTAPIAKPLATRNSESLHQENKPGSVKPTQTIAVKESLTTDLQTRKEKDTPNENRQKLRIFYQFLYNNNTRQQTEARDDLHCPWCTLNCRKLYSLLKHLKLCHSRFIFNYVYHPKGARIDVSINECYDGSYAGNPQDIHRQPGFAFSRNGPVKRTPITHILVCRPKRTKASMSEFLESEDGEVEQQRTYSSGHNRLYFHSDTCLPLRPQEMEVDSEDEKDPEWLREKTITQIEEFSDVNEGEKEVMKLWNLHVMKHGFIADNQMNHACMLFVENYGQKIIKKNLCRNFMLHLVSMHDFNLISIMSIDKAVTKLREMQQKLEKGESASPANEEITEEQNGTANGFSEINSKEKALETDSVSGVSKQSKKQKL", "T1 sequence (O75530 whole entry partner)": "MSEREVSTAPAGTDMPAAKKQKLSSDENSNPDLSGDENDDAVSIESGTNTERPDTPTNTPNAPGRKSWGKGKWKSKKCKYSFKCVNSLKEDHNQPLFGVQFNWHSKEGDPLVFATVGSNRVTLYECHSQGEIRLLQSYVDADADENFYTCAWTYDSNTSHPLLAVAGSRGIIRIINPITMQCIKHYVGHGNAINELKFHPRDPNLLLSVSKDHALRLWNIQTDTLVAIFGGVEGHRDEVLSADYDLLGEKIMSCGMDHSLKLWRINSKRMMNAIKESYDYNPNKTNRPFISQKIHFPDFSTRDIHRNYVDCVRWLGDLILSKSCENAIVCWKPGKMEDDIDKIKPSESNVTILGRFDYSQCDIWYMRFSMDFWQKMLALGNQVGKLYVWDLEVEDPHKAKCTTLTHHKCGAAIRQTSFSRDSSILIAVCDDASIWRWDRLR", "experiment": "Immunoprecipitation of EZH2 and immunoblot for SUZ12", "format": "cell-based", "details": "A1847 cells, 10 μM GSK126, 7 days", "method": "A1847 cells were treated with 10 μM GSK126 or vehicle control for 7 days. The cells were subjected to immunoprecipitation (IP) analysis by using an anti-EZH2 antibody. The immunoprecipitated product was examined for EZH2 and SUZ12 expression by immunoblot. An isotype-matched IgG was used as a control."}, "[4]": {"details": "clinical trials for hematopoietic malignancies; cited from earlier work"}, "EZH2": {"target": "T2, EZH2 (Homo sapiens, UniProt Q15910)", "T2 construct": "endogenous in cells; host or cells: A1847 cells (CARM1-high epithelial ovarian cancer line)", "T2 sequence (Q15910 whole entry)": "as the sequence (Q15910 whole entry) above", "T2 sequence (Q15022 whole entry partner)": "as the sequence (Q15022 whole entry partner) above", "T2 sequence (O75530 whole entry partner)": "as the sequence (O75530 whole entry partner) above", "experiment": "Immunoblot of A1847 cells treated with GSK126 (H3K27Me3 as readout of EZH2 activity)", "format": "cell-based", "design": "inhibition of the enzymatic activity of EZH2 as indicated by the decrease in H3K27Me3 levels: dose or concentration left out as unconfirmed", "details": "72 hours", "method": "FIG. 32 illustrates that the EZH2 inhibitor GSK126 decreases H3K27Me3 levels in a dose-dependent manner. A1847 cells were treated with the indicated concentrations of GSK126 for 72 hours and examined for expression of the indicated proteins by immunoblot. Expression of histone H3 and 3-actin was used as a loading control."}, "[5]": {"test_system": "promoter regions of the human DAB2, DLC1, and NOXA genes", "experiment": "ChIP-qPCR at promoters of EZH2/BAF155 target genes", "format": "cell-based", "details": "A1847 cells", "from_the_text": "FIGS. 58 to 61 illustrate the results of a ChIP analysis using anti-EZH2 (FIG. 58), anti-H3K27Me3 (FIG. 59), anti-BAF155 (FIG. 60), or anti-RNA Pol II (FIG. 61) antibodies. An isotype matched IgG was used as a negative control. ChIP products were subjected to qPCR analysis using primers specific for the promoter regions of the human DAB2, DLC1, and NOXA genes. Data is representative of three independent experiments. * p<0.001 compared with IgG controls and #p<0.001 compared with parental controls.\nChIP was performed as described in Tu et al. Developmental Cell(2011) 21:1077-91. The following antibodies were used to perform ChIP: anti-H3K27Me3 (Cell Signaling, Cat. No: 9733), anti-BAF155 (Santa Cruz, Cat. No: sc-9746), anti-RNA polymerase II (Santa Cruz, Cat. No: sc-899) or anti-EZH2 (Cell Signaling, Cat. No: 5246). An isotype matched IgG was used as a negative control. ChIP DNA was analyzed by quantitative PCR against the promoter of the indicated genes using the following primers: DAB2 Forward: 5′-[…]-3′ (SEQ ID NO: 10) and DAB2 Reverse: 5′-[…]-3′ (SEQ ID NO: 11); DLC1 Forward: 5′-[…]-3′ (SEQ ID NO: 12) and DLC1 Reverse: 5′-[…]-3′ (SEQ ID NO: 13); NOXA Forward: 5′-[…]-3′ (SEQ ID NO: 14) and NOXA Reverse: 5′-[…]-3′ (SEQ ID NO: 15); TIMP3 Forward: 5′-[…]-3′ (SEQ ID NO: 16) and TIMP3 Reverse: 5′-[…]-3′ (SEQ ID NO: 17)."}}, "note": "“Also recorded” adds a separate entry of the source.", "data": [{"molecule": "CC[C@H](C)n1cc(C)c2c(C(=O)NCc3c(C)cc(C)[nH]c3=O)cc(-c3ccc(N4CCNCC4)nc3)cc21", "note": "[GSK126, (S)-1-(sec-butyl)-N-((4,6-dimethyl-2-oxo-1,2-dihydropyridin-3-yl)methyl)-3-methyl-6-(6-(piperazin-1-yl)pyridin-3-yl)-1H-indole-4-carboxamide]", "values": [{"measurement": "growth of CARM1-expressing tumors", "setting": "[1]; 50 mg/kg daily i.p., three weeks", "result": "significantly inhibited"}, {"measurement": "survival of tumor bearing mice", "setting": "[1]; followed after stopping treatment, vs controls", "result": "significantly improved the survival"}, {"measurement": "markers of apoptosis", "setting": "[2]", "result": "induced"}, {"measurement": "interaction between PRC2 subunits EZH2 and SUZ12", "setting": "[3]", "result": "did not weaken the interaction"}, {"measurement": "safety in clinical trials", "setting": "[4]", "result": "used safely; also recorded: proven safe; also recorded: well-tolerated with limited toxicity"}, {"measurement": "EZH2 protein levels", "setting": "EZH2", "result": "did not affect EZH2 protein levels"}, {"measurement": "expression of CARM1", "setting": "EZH2", "result": "did not affect the expression of CARM1"}, {"measurement": "inhibition of the enzymatic activity of EZH2 as indicated by the decrease in H3K27Me3 levels", "setting": "EZH2", "result": "> 95", "unit": "%"}, {"measurement": "H3K27Me3 levels", "setting": "EZH2; indicated concentrations", "result": "dose-dependent decrease in H3K27Me3 levels"}, {"measurement": "EZH2 association with target genes", "setting": "[5]", "result": "without affecting EZH2's association with its target genes"}, {"measurement": "H3K27Me3 occupancy at target gene loci", "setting": "[5]", "result": "decreased H3K27Me3 occupancy"}]}]}
